In US20180201592A1, “2-AMINO-1,3,4-THIADIAZINE AND 2-AMINO-1,3,4-OXADIAZINE BASED ANTIFUNGAL AGENTS” (F2G Limited, priority 2015, published 2018):

Experiments:
Details in all cases: banded MIC grade
A. flavus = assay: Minimum inhibitory concentration, RPMI medium; assay type: cell-based
Outline: (§1)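 Thawed 5 mg/mL DMSO stocks are vortexed, diluted into sterile water and serially halved in water. The MIC test is then run in RPMI 1640 at 35° C for 24-48 hrs. Wells are read at OD 485 nm.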

A. terreus = assay: Minimum inhibitory concentration, RPMI medium; assay type: cell-based
Outline: as §1

C. krusei = assay: Minimum inhibitory concentration, RPMI medium; assay type: cell-based
Outline: as §1

A. terreus 49 [1] = assay: Minimum inhibitory concentration, RPMI medium; assay type: cell-based
Outline: as §1

C. glabrata = assay: Minimum inhibitory concentration, RPMI medium; assay type: cell-based
Outline: as §1

C. albicans = assay: Minimum inhibitory concentration, RPMI medium; assay type: cell-based
Outline: as §1

C. parapsilosis = assay: Minimum inhibitory concentration, RPMI medium; assay type: cell-based
Outline: as §1

C. tropicalis = assay: Minimum inhibitory concentration, RPMI medium; assay type: cell-based
Outline: as §1

A. niger = assay: Minimum inhibitory concentration, RPMI medium; assay type: cell-based
Outline: as §1

A. terreus 49 [2] = assay: Minimum inhibitory concentration, YAG medium; assay type: cell-based, Aspergillus terreus
Outline: (§2)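 MIC values (mg/L) were derived from well optical density at 485 nm. Plates with Aspergillus spores and doubling aqueous dilutions of compound (5 mg/mL DMSO stock) had been incubated at 35° C for 24 hrs.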

Aspergillus niger = assay: Minimum inhibitory concentration, YAG medium; assay type: cell-based
Outline: as §2

Aspergillus flavus = assay: Minimum inhibitory concentration, YAG medium; assay type: cell-based
Outline: as §2

Aspergillus terreus = assay: Minimum inhibitory concentration, YAG medium; assay type: cell-based
Outline: as §2

A. fumigatus = assay: Minimum inhibitory concentration, RPMI medium; assay type: cell-based
Protocol: (§3) Between 1 and 5 mgs of compound were accurately weighed out into a sterile Eppendorf tube. The compound was dissolved in DMSO to give a solution containing 5 mg/mL. Tubes were stored at −20° C. until required.
(§4) On the day of testing thawed solutions were vortex mixed to ensure homogeneity. 30 μL of solution was removed and added to 570 μL of sterile water in a separate sterile Eppendorf. The thoroughly mixed solution was used to prepare a series of doubling dilutions in water, in a deep well plate. Thirteen replicate plates were prepared using a Minitrak by aspirating 20 μL from each well into eleven clear polystyrene 96 well plates.
(§5) Assays were also performed in RPMI medium (Roswell Park Memorial Media 1640). To perform MIC tests in this medium, dilutions of compounds are prepared in microtitre plates as described above. Fungal strains to be tested are grown and harvested in an identical manner to that described above, and each organism suspension was diluted in RPMI medium, typically containing 2% glucose and 0.135 M MOPS buffer (pH 7.0) to 0.5-2×10^4cfu/mL, rather than in YAG medium. 80 μL of an organism suspension was added to each well of the plate containing drug dilutions.
(§6) This produced MIC plates with a drug range 50-0.05 mg/L and organism inocula of 1-2×10^4 cfu/mL. All plates were incubated for 24-48 hrs at 35° C. Growth was assessed by monitoring the optical density at 485 nm for each well. The MIC of a compound is the lowest drug concentration that inhibits growth of an organism by >80% compared with a drug free control. The following organisms were tested: C. albicans, C. parapsilosis, C. tropicalis, C. glabrata, C. krusei, A. niger, A. fumigatus, A. terreus, A. flavus, A. terreus 49, and A. fumigatus 210.

A. fumigatus 210 [3] = assay: Minimum inhibitory concentration, RPMI medium; assay type: cell-based
Protocol: as §3, §4, §5, §6

Aspergillus fumigatus = assay: Minimum inhibitory concentration, YAG medium; assay type: cell-based
Outline: (§7)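 MICs (mg/L) reflect >70% inhibition of OD485 growth versus untreated control after 24 hrs at 35° C in YAG medium, spore inoculum 1-2×10^4 cfu/mL, drug range 50-0.05 mg/L.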

A. fumigatus 210 [4] = assay: Minimum inhibitory concentration, YAG medium; assay type: cell-based, Aspergillus fumigatus
Outline: as §7

Structure (SMILES) | MIC grade, A. FLAVUS, RPMI media (A. flavus) | MIC grade, A. TERREUS, RPMI media (A. terreus) | MIC grade, C. KRUSEI, RPMI media (C. krusei) | MIC grade, A. TERREUS 49, RPMI media (A. terreus 49 [1]) | MIC grade, C. GLABRATA, RPMI media (C. glabrata) | MIC grade, C. ALBICANS, RPMI media (C. albicans) | MIC grade, C. PARAPSILOSIS, RPMI media (C. parapsilosis) | MIC grade, C. TROPICALIS, RPMI media (C. tropicalis) | MIC grade, A. NIGER, RPMI media (A. niger) | MIC grade, A. TERREUS 49, YAG media (A. terreus 49 [2]) | MIC grade, A. NIGER, YAG media (Aspergillus niger) | MIC grade, A. FLAVUS, YAG media (Aspergillus flavus) | MIC grade, A. TERREUS, YAG media (Aspergillus terreus) | MIC grade, A. FUMIGATUS, RPMI media (A. fumigatus) | MIC grade, A. FUMIGATUS 210, RPMI media (A. fumigatus 210 [3]) | MIC grade, A. FUMIGATUS, YAG media (Aspergillus fumigatus) | MIC grade, A. FUMIGATUS 210, YAG media (A. fumigatus 210 [4])
CCCCc1cccc(COCCCCC2=NN=C(N)SC2)c1 | 2 (2: 5-20 mg/L) | 2 (2: 5-20 mg/L) | 2 (2: 5-20 mg/L) | 2 (2: 5-20 mg/L) | 1 (1: ≥20 mg/L) | 2 (2: 5-20 mg/L) | 2 (2: 5-20 mg/L) | 2 (2: 5-20 mg/L) | 2 (2: 5-20 mg/L) | 2 (2: 1-5 mg/L) | 3 (3: 0.2-1 mg/L) | 3 (3: 0.2-1 mg/L) | 2 (2: 1-5 mg/L) | 2 (2: 5-20 mg/L) | 1 (1: ≥20 mg/L) | 1 (1: ≥5 mg/L) | 1 (1: ≥5 mg/L)
NC1=NN=C(CCCCOCc2ccc(Br)cc2)CS1 | 4 (4: <1 mg/L) | 4 (4: <1 mg/L) | 4 (4: <1 mg/L) | 3 (3: 1-5 mg/L) | 4 (4: <1 mg/L) | 4 (4: <1 mg/L) | 4 (4: <1 mg/L) | 4 (4: <1 mg/L) | 3 (3: 1-5 mg/L) | 4 (4: <0.2 mg/L) | 4 (4: <0.2 mg/L) | 4 (4: <0.2 mg/L) | 4 (4: <0.2 mg/L) | 2 (2: 5-20 mg/L) | 2 (2: 5-20 mg/L) | 4 (4: <0.2 mg/L) | 4 (4: <0.2 mg/L)
NC1=NN=C(CCCCSCc2ccc(Cl)cc2)CS1 | 3 (3: 1-5 mg/L) | 2 (2: 5-20 mg/L) | 3 (3: 1-5 mg/L) | 2 (2: 5-20 mg/L) | 2 (2: 5-20 mg/L) | 3 (3: 1-5 mg/L) | 3 (3: 1-5 mg/L) | 3 (3: 1-5 mg/L) | 3 (3: 1-5 mg/L) | 4 (4: <0.2 mg/L) | 4 (4: <0.2 mg/L) | 4 (4: <0.2 mg/L) | 4 (4: <0.2 mg/L) | 2 (2: 5-20 mg/L) | 2 (2: 5-20 mg/L) | 3 (3: 0.2-1 mg/L) | 3 (3: 0.2-1 mg/L)
